pIC50: −log10 of the molar value.
How the values were obtained:
[1] = target: Mammalian GSK-3 (GSK-3α/β); assay: Kinase assay with native porcine GSK3 purified from porcine brain, GS-1 peptide and [γ-33P] ATP; type: biochemical; conditions: for anti-mammalian GSK-3 IC50 values: result in words; for pIC50: -(10) taken as no inhibition at 10, read-out: IC50 Mammalian GSK-3
Protocol: Porcine GSK3 (GSK-3α/β) was purified from porcine brain by affinity chromatography on immobilized axin according to the protocol described in Primot et al (Protein Expression and Purification 20, 394-404, 2000).
(§1) Both porcine GSK3 and PfGSK3 were assayed with 40 µM GS-1 peptide, a specific GSK-3 substrate, ([…]pEDEEE, synthesized by the Peptide Synthesis Unit, Institute of Biomolecular Sciences, University of Southampton, U.K.), in buffer A (25 mM Tris-HCl pH 7.5, 10 mM MgC12, 1 mM EGTA, 1 mM DTT, 50 µg heparin/ml, 0.5 mg BSA/ml) in the presence of 15 µM [γ-^33P] ATP (3000 Ci/mmol; 1 mCi/ml) in a final volume of 30 µl. After 30 min. incubation at 30°C, 25 µl aliquots of supernatant were spotted onto 2.5 x 3 cm pieces of Whatman P81 phosphocellulose paper, and, 20 sec. later, the filters were washed five times (for at least 5 min. each time) in 1 % phosphoric acid. The wet filters were counted in the presence of 1 ml ACS (Amersham) scintillation fluid. The kinase activity was expressed in pmoles phosphate incorporated in GS-1 or in percentage of the maximal activity.

PfGSK-3 = target: T1, PfGSK-3 (Plasmodium falciparum, UniProt O77344); assay: Kinase assay with recombinant (His)6-tagged PfGSK3, GS-1 peptide and [γ-33P] ATP; type: biochemical; conditions: for anti-PfGSK-3 IC50 values: result in words; for pIC50: unit only in the introducing sentence b99, not in the table, read-out: IC50 PfGSK-3
T1 construct: His6; made in house; host or cells: Escherichia coli TOP 10
T1 sequence (O77344 1-440): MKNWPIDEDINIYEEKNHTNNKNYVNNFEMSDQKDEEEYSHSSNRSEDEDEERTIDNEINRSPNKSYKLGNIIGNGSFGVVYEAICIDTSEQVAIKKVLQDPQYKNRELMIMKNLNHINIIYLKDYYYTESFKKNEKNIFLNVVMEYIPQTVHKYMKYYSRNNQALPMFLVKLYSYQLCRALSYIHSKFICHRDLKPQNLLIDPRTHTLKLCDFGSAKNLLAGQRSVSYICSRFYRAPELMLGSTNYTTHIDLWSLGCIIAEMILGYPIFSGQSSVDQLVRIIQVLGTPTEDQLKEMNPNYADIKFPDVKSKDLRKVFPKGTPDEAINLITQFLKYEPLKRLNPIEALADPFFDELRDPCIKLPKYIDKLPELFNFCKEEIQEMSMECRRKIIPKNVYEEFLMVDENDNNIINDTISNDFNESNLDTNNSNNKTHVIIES
Protocol: Escherichia coli strain (TOP 10) containing a plasmid encoding PfGSK3 with six histidines (pBAD-Thio-TOPO, Invitrogen) were cultured into 500 ml of LB medium containing 100 µg/ml ampicillin, at 37°C, under shaking (250 rpm) until OD600 of 0.5 was reached. Expression was induced with 0.5 ml of 20% arabinose (0.02% final concentration). The culture was grown at 37°C with shaking for 4 hours. Cells were harvested by centrifugation at 9000 rpm for 10 min. The bacterial pellet was stored frozen at -80°C until further processing. For proteins extraction, pellet was resuspended in 10 ml of lysis buffer (50 mM NaH2PO4 pH 8.0, 300 mM NaCl, 10 mM imidazole) with the addition of protease inhibitors (complete EDTA-free, Roche) and lysozyme ([…] final). Cells were disrupted by sonication and the cell lysate was centrifuged at 24000 rpm for 30 min at 4°C. The recombinant PfGSK3 protein was purified by Immobilized Metal Affinity Chromatography according to a batch procedure on 1 ml of Nickel affinity resin (Ni-NTA agarose beads, Qiagen). Beads were washed four times with 10 ml of wash buffer (50 mM NaH2PO4 pH 8.0, 300 mM NaCl, 30 mM imidazole). Protein was eluted with one volume of elution buffer (50 mM NaH2PO4 pH 8.0, 300 mM NaCl, 250 mM imidazole, 10% glycerol).
as §1

| anti-mammalian GSK-3 IC50 values [1] | anti-PfGSK-3 IC50 values (PfGSK-3) | pIC50 [1] | pIC50 (PfGSK-3) | SMILES |
| --- | --- | --- | --- | --- |
|  |  | 5.64 | 6.74 | N#Cc1sc2nc(N)c(C#N)c(-c3cccs3)c2c1N [Compound 41, 3,6-diamino-4-(2-thienyl)thieno[2,3-b]pyridine-2,5-dicarbonitrile] |
|  |  | 5.70 | 6.29 | Cc1ccccc1-c1c(C#N)c(N)nc2sc(C#N)c(N)c12 [Compound 40, 3,6-diamino-4-(2-methylphenyl)thieno[2,3-b]pyridine-2,5-dicarbonitrile] |
| do not demonstrate good | particularly good |  |  | N#Cc1c(N)nc2sc(C(=O)c3cccc(Br)c3)c(N)c2c1-c1ccccc1Cl [Compound 27, 3,6-diamino-2-(3-bromobenzoyl)-4-(2-chlorophenyl)thieno[2,3-b]pyridine-5-carbonitrile] |
| do not demonstrate good | particularly good |  |  | N#Cc1c(N)nc2sc(C(=O)c3ccc(Cl)c(Cl)c3)c(N)c2c1-c1ccccc1Cl [Compound 23, 3,6-diamino-4-(2-chlorophenyl)-2-(3,4-dichlorobenzoyl)thieno[2,3-b]pyridine-5-carbonitrile] |

Continued, compound first:

| SMILES | anti-mammalian GSK-3 IC50 values [1] | anti-PfGSK-3 IC50 values (PfGSK-3) | pIC50 [1] | pIC50 (PfGSK-3) |
| --- | --- | --- | --- | --- |
| Cc1ccc(C(=O)c2sc3nc(N)c(C#N)c(-c4ccccc4I)c3c2N)cc1 [Compound 12, 3,6-diamino-4-(2-iodophenyl)-2-(4-methylbenzoyl)thieno[2,3-b]pyridine-5-carbonitrile] | do not demonstrate good | particularly good |  |  |
| N#Cc1c(N)nc2sc3c(=S)[nH]cnc3c2c1-c1ccccc1Cl [Compound 47, 7-amino-9-(2-chlorophenyl)-4-thioxo-3,4-dihydropyrido[3',2':4,5]thieno[3,2-d]pyrimidine-8-carbonitrile] |  |  | 7.22 | 6.89 |
| COc1cccc(C(=O)c2sc3nc(N)c(C#N)c(-c4ccccc4Cl)c3c2N)c1 [Compound 24, 3,6-diamino-4-(2-chlorophenyl)-2-(3-methoxybenzoyl)thieno[2,3-b]pyridine-5-carbonitrile] | do not demonstrate good | particularly good |  |  |
| N#Cc1c(N)nc2sc(C(=O)c3ccccc3)c(N)c2c1-c1ccccc1Br [Compound 18, 3,6-diamino-2-benzoyl-4-(2-bromophenyl)thieno[2,3-b]pyridine-5-carbonitrile] | do not demonstrate good | particularly good |  |  |
| COc1ccc(C(=O)c2sc3nc(N)c(C#N)c(-c4ccccc4I)c3c2N)cc1 [Compound 11, 3,6-diamino-4-(2-iodophenyl)-2-(4-methoxybenzoyl)thieno[2,3-b]pyridine-5-carbonitrile] | do not demonstrate good | particularly good | < 5.00 | 5.77 |
| COc1ccccc1-c1c(C#N)c(N)nc2sc(C(=O)c3cccc(Cl)c3)c(N)c12 [Compound 7, 3,6-diamino-2-(3-chlorobenzoyl)-4-(2-methoxyphenyl)thieno[2,3-b]pyridine-5-carbonitrile] | do not demonstrate good | particularly good |  |  |
| N#Cc1c(N)nc2sc(C(=O)c3cccc(C(F)(F)F)c3)c(N)c2c1-c1ccccc1Cl [Compound 25, 3,6-diamino-4-(2-chlorophenyl)-2-[3-(trifluoromethyl)benzoyl]thieno[2,3-b]pyridine-5-carbonitrile] | do not demonstrate good | particularly good |  |  |
| N#Cc1c(N)nc2sc(C(=O)c3cccc(Cl)c3)c(N)c2c1-c1c(Cl)cccc1Cl [Compound 30, 3,6-diamino-2-(3-chlorobenzoyl)-4-(2,6-dichlorophenyl)thieno[2,3-b]pyridine-5-carbonitrile] | do not demonstrate good | particularly good |  |  |

From patent EP2308883A1, “New derivatives of thieno[2,3-b]pyridine and 5,6,7,8 tetrahydrothieno[2,3 b]quinoline in particular useful in the treatment of malaria” (priority 2009, dated 2011)
